The target in assay [1] is T1, PI5P4Kγ+ (E378H,I159V,D161V) mutant (Homo sapiens, UniProt Q8TBX8, D161V/E153T/I159V/Q378H).
T1 construct: gene PIP4K2C
T1 sequence (Q8TBX8 2-421 E153T/I159V/D161V/Q378H): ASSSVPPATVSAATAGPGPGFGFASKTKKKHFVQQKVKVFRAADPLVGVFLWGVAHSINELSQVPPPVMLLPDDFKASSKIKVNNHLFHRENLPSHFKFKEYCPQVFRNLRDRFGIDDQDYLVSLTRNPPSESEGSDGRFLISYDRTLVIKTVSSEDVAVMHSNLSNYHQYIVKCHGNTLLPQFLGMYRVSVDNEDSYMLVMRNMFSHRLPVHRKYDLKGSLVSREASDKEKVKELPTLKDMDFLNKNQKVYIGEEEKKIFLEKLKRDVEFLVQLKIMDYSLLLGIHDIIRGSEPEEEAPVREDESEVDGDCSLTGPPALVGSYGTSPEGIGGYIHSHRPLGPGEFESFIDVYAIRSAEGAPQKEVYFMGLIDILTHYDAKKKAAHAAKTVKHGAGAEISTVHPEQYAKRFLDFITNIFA
Put plainly: […] lipid kinase assay, % inhibition at […]. The class given is biochemical.

In assay [2] the target is T2, phosphatidylinositol 5-phosphate 4-kinase γ (PI5P4Kγ) (Homo sapiens, UniProt Q8TBX8).
T2 construct: gene PIP4K2C; PI5P4Kγ from GST fusion (pGEX6P), GST cleaved with PreScission protease
Put plainly: HDX-MS with purified protein; IC50 from […]P lipid kinase assay on recombinant enzyme. Type of assay: biochemical.

T2 sequence (Q8TBX8 2-421): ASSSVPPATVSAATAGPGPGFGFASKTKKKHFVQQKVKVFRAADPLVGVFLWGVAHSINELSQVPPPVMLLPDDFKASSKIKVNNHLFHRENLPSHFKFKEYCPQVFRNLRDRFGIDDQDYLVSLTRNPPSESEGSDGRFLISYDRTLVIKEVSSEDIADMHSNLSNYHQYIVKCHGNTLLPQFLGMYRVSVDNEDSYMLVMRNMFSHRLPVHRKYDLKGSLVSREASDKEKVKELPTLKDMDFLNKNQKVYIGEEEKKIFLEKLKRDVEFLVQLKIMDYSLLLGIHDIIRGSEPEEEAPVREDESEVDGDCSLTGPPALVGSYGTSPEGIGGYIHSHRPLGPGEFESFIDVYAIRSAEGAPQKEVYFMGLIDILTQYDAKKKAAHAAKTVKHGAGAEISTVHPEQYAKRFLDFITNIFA

By inhibition is commonly meant the relative decrease from the control value, in per cent. Higher therefore signals a strong effect. What is called IC50 is the point on the concentration scale where inhibition reaches its midpoint. Consider `FC(F)(F)c1ccccc1-c1nc(NCc2cccs2)c2ccccc2n1` [compound 1, NIH-12848], for which the inhibition at 10 µM in assay [1] was found to be 71%. Besides, the IC50 in assay [2] was determined as 3.3 µM.
